Molecular target: RoxA (RoxA-Wt, rubber oxygenase A) (Xanthomonas sp. 35Y, UniProt Q7X0P3)
Conditions: RoxA as isolated (oxygenated haem), pyridine 2 mM, pH 7; N-terminal haem iron, displaces bound dioxygen

RoxA (RoxA-Wt, rubber oxygenase A), sequence (Q7X0P3 entry or part of it): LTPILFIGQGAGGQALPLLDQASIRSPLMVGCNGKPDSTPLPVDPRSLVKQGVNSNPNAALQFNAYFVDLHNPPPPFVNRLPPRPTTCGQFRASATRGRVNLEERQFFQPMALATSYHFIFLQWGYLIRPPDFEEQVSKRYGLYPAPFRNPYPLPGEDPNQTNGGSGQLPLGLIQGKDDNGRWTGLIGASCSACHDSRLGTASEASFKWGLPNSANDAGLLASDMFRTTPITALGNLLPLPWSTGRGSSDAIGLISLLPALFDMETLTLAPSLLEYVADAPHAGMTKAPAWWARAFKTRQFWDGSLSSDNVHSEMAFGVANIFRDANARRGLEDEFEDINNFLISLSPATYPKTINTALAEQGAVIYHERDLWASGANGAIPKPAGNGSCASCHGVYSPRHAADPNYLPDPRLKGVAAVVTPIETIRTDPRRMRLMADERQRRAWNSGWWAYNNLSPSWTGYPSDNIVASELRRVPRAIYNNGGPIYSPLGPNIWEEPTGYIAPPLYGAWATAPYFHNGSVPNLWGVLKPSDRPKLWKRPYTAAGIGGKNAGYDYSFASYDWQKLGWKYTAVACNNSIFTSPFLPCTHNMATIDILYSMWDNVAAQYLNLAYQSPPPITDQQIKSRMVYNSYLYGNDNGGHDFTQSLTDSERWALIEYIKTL

## c1ccncc1 [pyridine]
  UV-vis spectroscopy (549 nm band), EPR: displacement of haem-bound dioxygen by N-heterocycles that then serve as artificial ligands to a ferrous haem
